Source: patent US8748566B2, “Pharmacologically active antiviral peptides and methods of use” (priority 2000, dated 2014)

Tests used:
HSV-1 KOS virions = assay: Electron microscopy of peptide-treated virions (aggregation); settings: 25 μM peptide, purified virus particles
Method: Purified HSV-1 KOS virions (2.5×10^7 pfu/ml) according to Visalli et al., Virus Res. 29:167 (1993) were treated with 25 μM antiviral peptide SEQ ID NO:1 or the control peptide EBX (SEQ ID NO: 17) in 40 μl serum-free DMEM buffered with 25 mM Hepes (pH 7.4) for 5 to 60 min at 4 or 23° C. Aliquots (10 μl) were adsorbed to pioloform poly-L-lysine-coated grids for 5 min at 23° C. Grids were rinsed with PBS, stained with 2% phosphotungstic acid (PTA) in water adjusted to pH ˜6 and air dried. Alternatively, virus was pre-adsorbed to grids and treated with peptides thereafter. A total of 4×10^9 pfu/ml of purified HSV-1 KOS in 5 μl PBS was applied to the coated grids for 5 min at 23° C., and the grids were rinsed once with serum-free DMEM buffered with 25 mM Hepes (pH 7.4) and treated with 15 μl of 5 mM EB or EBX in the same medium for 30 min at 37° C. The pH of highly concentrated solutions of antiviral peptide SEQ ID NO:1 and EBX was re-adjusted to 7.4 with NaOH prior to use. To prevent evaporation of the peptide-containing solutions, each grid was held in a Hiraoka flexible staining plate and covered with miniature bell jar made from an 0.5 ml polypropylene micro-centrifuge tubes, small enough for the 15 μl to fill half of the bell jar facing the coated surface of the grid. The entire assembly was then incubated in a moist chamber for 30 min at 37° C. […]

hrR3 = assay: Virucidal assay; assay type: cell-based; settings: overnight dialysis against serum-containing medium
Method: […] The treated virus was diluted 200-fold with serum-supplemented DMEM and assayed for infectivity approximately 1 hour later in microtiter wells seeded with Vero cells (3.5×10^4 cells/well) 1 d earlier. Forty or 100 microliter volumes of diluted virus were adsorbed for 1 or 2 h at 37° C. and lacZ^+ cells were scored 8 hours later. In some experiments, aliquots of diluted virus were first dialyzed (Spectra/Por; MWCO 12-14,000) overnight at 4° C. against a 60-fold excess volume of Hepes-buffered serum-supplemented DMEM or forced by syringe through 0.22 μm membranes (Millex-GV; Millipore) before the remaining infectious virus was assayed.

HSV-1 KOS = assay: Plaque reduction assay, HSV-1 KOS infection of Vero cell cultures; assay type: cell-based
Method: The procedures for growing Vero cells and preparing high titer stocks of HSV-1 KOS as described in (Grau et al., Invest. Ophthal. and Vis. Sci. 30: 2474 (1989)) were utilized. Vero cells were maintained in carbonate-buffered DMEM supplemented with 5% calf serum and 5% fetal bovine serum (regular medium). For some studies, cells were switched to serum-free DMEM buffered with 25 mM Hepes (pH 7.4) and allowed to adapt to that medium for 30 min prior to experimental treatments. Vero cells were seeded into wells (0.28 cm^2) of microtiter plates either at 3.5×10^4 cells/well for use 1 day later (8×10^4 cells/well) or at 1×10^4 cells/well for use 3 days later (2×10^5 cells/well).
Confluent Vero cell cultures in microtiter plates were infected for 1 hour at 37° C. in 40 μl of medium. Except where indicated, peptide treatments in 40 μl of medium lasted from 1 hour before through 1 hour after infection. At the end of the adsorption period, the cultures were re-fed with 100 μl of regular medium. Plaque formation was scored 2 days later and the number of plaques scored per well was normalized to the number counted in the absence of peptide. Using an ocular micrometer, plaque size ([…]) was determined by measuring the largest plaque diameter (L) and the diameter at a 90° angle to that (S). The size of each of the first 40 scored plaques was measured except when a plaque included less than 10 rounded cells or touched the side of the well.

H-RRKKAAVALLPAVLLALLAP-OH [EB] was tested, and the “state of virus particles by electron microscopy” value (HSV-1 KOS virions) was “nearly all of the particles were seen in relatively few large aggregates”, the “reversibility of virion inactivation” value (hrR3) was “irreversibly inactivated” and the “effect on plaque size” value (HSV-1 KOS; EB present before and during adsorption) was “no effect on plaque size”. For the same substance, the “fold lower concentration blocking infections compared to control peptide EBX” value (HSV-1 KOS; absence of serum (FIG. 1B)) was 100 fold, the “effect on plaque formation” value (HSV-1 KOS; peptide present during infection of Vero cells with HSV-1 KOS) was “blocking plaque formation” and the “fold lower concentration blocking infections compared to control peptide EBX” value (HSV-1 KOS; presence of serum (FIG. 1A)) was 10 fold. For the same substance, the “combined mean plaque size” value (HSV-1 KOS; transient treatments with 6 and 12 μM EB (up to 1 hour post-infection)) was 68,000±11,000 μm^2.
